For series [1] the following is noted: cited from earlier work.
The nature of series [2]: Ex vivo skin permeation, static Franz-type diffusion cells, HPLC-DAD relative quantification. The format is in vitro ADME, porcine. The conditions noted are these: for total permeated amounts (AUC), comparison of the two ointments: after 32 h, lard ointment versus wool wax/castor oil ointment; for Enhancement Factor: mean flux from lard versus wool wax/castor oil; for Mean Flux Based on AUC/cm^2/h (relative mass flux): infinite dose 500 mg, 32 °C, n = 9 cells; for time after which detectable in acceptor samples: wool wax/castor oil and Picea-Salbe ointments. The method, then: Skin permeation studies were performed using dermatomed porcine ear skin and static Franz-type diffusion cells (PermeGear, Hellertown, PA, USA, permeation area of 0.95 cm^2, acceptor volume of 2 mL). Porcine ears were obtained after sacrifice from a local abattoir (Johann Gantner GmbH, Gemeinde Hollabrunn, Austria, male and female animals at six months of age). The ears were cleaned under running water and were dried and stored at −18 °C until use.
Fresh vehicles were prepared 48 h before the start of the experiments. Skin from the dorsal side of the ears was cut to a thickness of 400 µm with a dermatome (Aesculap GA 630 DBP, Aesculap AG, Tuttlingen, Germany). Hair was removed with scissors. The skin was cut into 1 × 1 cm pieces and was clamped between donor and acceptor chamber. The acceptor medium consisted of a mixture of phosphate-buffered saline and ethanol (60:40% v/v) to ensure sink conditions. The phosphate-buffered saline was prepared as described in the Pharmacopoeia Europaea (0.012 M, pH of 7.4, 0.238% w/w sodium monohydrogen phosphate, 0.019% w/w potassium dihydrogen phosphate, and 0.8% w/w sodium chloride). Before starting the experiments, the transepidermal water loss (TEWL) was measured with a closed-chamber device and a coupling adapter (Aquaflux® AF200, Biox Systems Ltd., London, UK) to ensure consistent skin quality and barrier function.
The ointments were applied to the donor chambers at infinite dose conditions (500 mg of formulation). The donor compartment and sampling arm were occluded with Parafilm to prevent evaporation of sample or acceptor fluid. The diffusion cells were kept in a water bath at 32 °C to simulate skin surface temperature. Magnetic stirring was employed to avoid concentration layers within the acceptor fluid. Cells were regularly checked for air bubbles. After predefined intervals (2, 4, 6, 8, 24, 28, and 32 h), an aliquot of 200 μL of acceptor medium was taken for analysis and was replaced with fresh acceptor medium at 32 °C.
The most suitable formulation was chosen for analysis of permeation potential as well as the commercial product Picea-Salbe®. Three individual permeation experiments with n = 3 cells were performed for formulations and controls. The final results depict mean values ± SDs of n = 9 cells per formulation. As controls, the respective ointment bases without PSB as well as the plain acceptor medium alone were used.
For the analysis of samples drawn from Franz diffusion cells, a Shimadzu HPLC instrumentation with diode array detection (SHIMADZU Autosampler SIL-20AC HAT, SHIMADZU Column Oven CTO-20AC, SHIMADZU Communications Bus Module CBM-20A, SHIMADZU Degasser DGU-20A5, SHIMADZU Diode Array Detector SPD-M20A, SHIMADZU Liquid Chromatograph LC-20AD, SHIMADZU LabSolutions Software 5.81, Shimadzu, Kyoto, Japan) was used. A reversed-phase C18 column (LiChrospher 100 RP18e, 5 μm, 250 × 4 mm, Merck KGaA, Darmstadt, Germany) was employed as stationary phase. Double-distilled water + 0.1% formic acid (solvent A) and acetonitrile + 0.1% formic acid (solvent B) served as mobile phase, and gradient elution at 1 mL/min flow rate was applied as follows: 15% solvent B rose to 95% solvent B within 45 min (rate of 1.77%/min) followed by 5 min washing step at 98% solvent B and re-equilibration for 10 min with 15% solvent B. Samples drawn from Franz diffusion cells were centrifuged, and 10 μL were injected into the system. PSB samples were dissolved in acetone to a final concentration of 5 mg/mL, and 2 μL were analyzed. […] Peak areas (AUC) were obtained using the SHIMADZU LabSolutions Software 5.81 (Shimadzu, Kyoto, Japan) and were further utilized for interpretation of data.

Setting [3] is: vehicle lard (Picea-Salbe, 20% spruce balm).
Where [4] appears, read: vehicle wool wax/castor oil with 20% PSB (batch PSB5).

The source of these data is paper PMC10302299, “Spruce Balm-Based Semisolid Vehicles for Wound Healing: Effect of Excipients on Rheological Properties and Ex Vivo Skin Permeation” (Pharmaceutics, 2023).

Like-named read-outs stand apart in the source and are kept apart here.

With `CC(C)c1ccc2c(c1)C(O)CC1[C@](C)(C(=O)O)CCC[C@]21C` (some centres unmarked) [7-Hydroxy-dehydroabietic acid], the “Effects contributing to wound healing” value in series [1] (Hydroxylated resin acids) is “re-epithelialization boosting [9], antimicrobial [22], and anti-inflammatory effects [23]”.

Take `CC(C)(O)c1ccc2c(c1)[C@H](O)CC1[C@](C)(C(=O)O)CCC[C@]21C` (stereo partly drawn) [7α,15-Dihydroxy-dehydroabietic acid]: the “Effects contributing to wound healing” value in series [1] (Hydroxylated resin acids) is “re-epithelialization boosting [9], antimicrobial [22], and anti-inflammatory effects [23]”.

Regarding `CC(C)(O)c1ccc2c(c1)[C@@H](O)CC1[C@](C)(C(=O)O)CCC[C@]21C` (stereo partly drawn) [7β,15-Dihydroxy-dehydroabietic acid], in series [1] (Hydroxylated resin acids), the “Effects contributing to wound healing” value was “re-epithelialization boosting [9], antimicrobial [22], and anti-inflammatory effects [23]”.

On to `CC(C)(O)c1ccc2c(c1)CC[C@H]1[C@](C)(C(=O)O)CCC[C@]21C` [15-hydroxy-dehydroabietic acid, 15-Hydroxy-dehydroabietic acid], for which, in series [2], the “total permeated amounts (AUC), comparison of the two ointments” value is “a similar trend was observed”; the “Enhancement Factor” value worked out at 1.8; the “time after which detectable in acceptor samples” value was found to be 24 h. In addition, in series [2] (setting [3]), the “Mean Flux Based on AUC/cm^2/h (relative mass flux)” value came to 25.558 ± 9.673 AUC/cm^2/h. For the same compound, the “Mean Flux Based on AUC/cm^2/h (relative mass flux)” value in series [2] (setting [4]) came out at 13.606 ± 6.196 AUC/cm^2/h. Further, the “Effects contributing to wound healing” value in series [1] (Hydroxylated resin acids) was “re-epithelialization boosting [9], antimicrobial [22], and anti-inflammatory effects [23]”.

Turning to `CC(C)C1=CC2=CC[C@@H]3[C@](C)(CCC[C@@]3(C)C(=O)O)[C@H]2CC1` [Abietic acid], the “Effects contributing to wound healing” value in series [1] (Diterpene resin acids (302 Da)) is “re-epithelialization boosting [9], antimicrobial [24, 25, 26, 27], anti-inflammatory [28, 29, 30], and antioxidant effects [31]”.

Consider `O=C(O)/C=C/c1ccc(O)c(O)c1` [Caffeic acid], for which, in series [1] (Hydroxycinnamic acids), the “Effects contributing to wound healing” value was “antioxidant, antimicrobial, and anti-inflammatory effects [19]”.

For the compound `COc1cc(/C=C/C(=O)O)ccc1O` [Ferulic acid], in series [1] (Hydroxycinnamic acids), the “Effects contributing to wound healing” value is “antioxidant, antimicrobial, and anti-inflammatory effects [19]”.

On to `C=C[C@@]1(C)CC[C@H]2C(=CC[C@@H]3[C@]2(C)CCC[C@@]3(C)C(=O)O)C1` [Isopimaric acid], for which the “Effects contributing to wound healing” value in series [1] (Diterpene resin acids (302 Da)) was “re-epithelialization boosting [9], antimicrobial [24, 25, 26, 27], anti-inflammatory [28, 29, 30], and antioxidant effects [31]”.

In the case of `CC(C)C1=CC[C@H]2C(=C1)CC[C@@H]1[C@]2(C)CCC[C@@]1(C)C(=O)O` [Levopimaric acid], the “Effects contributing to wound healing” value in series [1] (Diterpene resin acids (302 Da)) was “re-epithelialization boosting [9], antimicrobial [24, 25, 26, 27], anti-inflammatory [28, 29, 30], and antioxidant effects [31]”.

Regarding `CC(C)=C1C=C2CCC3C(C)(C(=O)O)CCCC3(C)C2CC1` (centres unmarked) [Neoabietic acid], the “Effects contributing to wound healing” value in series [1] (Diterpene resin acids (302 Da)) is “re-epithelialization boosting [9], antimicrobial [24, 25, 26, 27], anti-inflammatory [28, 29, 30], and antioxidant effects [31]”.

Turning to `CC(C)C1=CC2=C(CC1)[C@@]1(C)CCC[C@@](C)(C(=O)O)[C@@H]1CC2` [Palustric acid], the “Effects contributing to wound healing” value in series [1] (Diterpene resin acids (302 Da)) is “re-epithelialization boosting [9], antimicrobial [24, 25, 26, 27], anti-inflammatory [28, 29, 30], and antioxidant effects [31]”.

`C=C[C@@]1(C)C=C2CC[C@@H]3[C@](C)(CCC[C@@]3(C)C(=O)O)[C@H]2CC1` [Pimaric acid]: the “Effects contributing to wound healing” value in series [1] (Diterpene resin acids (302 Da)) was “re-epithelialization boosting [9], antimicrobial [24, 25, 26, 27], anti-inflammatory [28, 29, 30], and antioxidant effects [31]”.

Turning to `C=C[C@]1(C)C=C2CC[C@@H]3[C@](C)(CCC[C@@]3(C)C(=O)O)[C@H]2CC1` [Sandaracopimaric acid], the “Effects contributing to wound healing” value in series [1] (Diterpene resin acids (302 Da)) was “re-epithelialization boosting [9], antimicrobial [24, 25, 26, 27], anti-inflammatory [28, 29, 30], and antioxidant effects [31]”.

On to `CC(C)c1ccc2c(c1)CC[C@H]1[C@](C)(C(=O)O)CCC[C@]21C` [dehydroabietic acid, Dehydroabietic acid], for which, in series [2], the “total permeated amounts (AUC), comparison of the two ointments” value is on record as “highly comparable”; the “Enhancement Factor” value worked out at 1.1; the “time after which detectable in acceptor samples” value was 8 h. Besides, the “Mean Flux Based on AUC/cm^2/h (relative mass flux)” value in series [2] (setting [3]) was 24.041 ± 7.099 AUC/cm^2/h. In series [2] (setting [4]), the “Mean Flux Based on AUC/cm^2/h (relative mass flux)” value is 21.848 ± 7.791 AUC/cm^2/h. The “Effects contributing to wound healing” value in series [1] (Diterpene resin acids (300 Da)) is “re-epithelialization boosting [9], anti-inflammatory [23], and antimicrobial effects [24]”.

Take `O=C(O)C=Cc1ccc(O)cc1` [p-Coumaric acid]: the “Effects contributing to wound healing” value in series [1] (Hydroxycinnamic acids) is “antioxidant, antimicrobial, and anti-inflammatory effects [19]”.

With Pinoresinol, the “Effects contributing to wound healing” value in series [1] (Lignans) was “antifungal [20], antioxidant, anti-inflammatory [21], and re-epithelialization boosting effects [9]”.
